The values that follow come from ChEMBL document CHEMBL1150992, “Synthesis and preparation of an affinity chromatography column for the purification of cytosolic phospholipase A2” (Bioorg Med Chem Lett, 1995).

Molecules are shown by their SMILES.

Test [1] in a line: Inhibitory activity against cPLA2 was assessed from arachidonic acid (AA) release in U937 cells. Type of test: functional, cell-based. The following applies: U-937.
Test [2] in a line: Inhibitory activity against cPLA2 was assessed from arachidonic acid (AA) release in cell free assay. Type of test: functional.

As for `CCCc1c(OCCCOc2ccc(C(CCCc3ccccc3)SCCC(=O)O)cc2)ccc(C(C)=O)c1O` (configuration not stated), the IC50 in test [1] and in test [2] was 1 µM each time.
